This is an account of results in patent EP3336173A1, “A STRAIN OF A[…] APPLICATIONS THEREOF” (Infinitec Activos S.L., priority 2016, dated 2018).

For this experiment, the system named is Prostaglandin E2 (PGE2). The experiment is described as follows: Anti-inflammatory activity: PGE2 quantification by ELISA in cells stimulated by IL-1α. It counts as cell-based. As to conditions: Cycloheximide 100 µg/ml; IL-1α (5 pM). As for the experimental part:
When cells are stimulated by an inflammatory agent PGE2 is synthesized de novo and released into the extracellular space. Thus quantification of PGE2 is used to asses the anti-inflammatory activity products.
In the present example the anti-inflammatory activity of the extract of example 2 was determined by quantification of PGE2 in cells stimulated by IL-1α using a kit for an enzyme-linked immunosorbent assay (ELISA). The kit used was Prostaglandin E2 EIA kit Item n° 514010 from Cayman Chemical.
Prostaglandin E2 assay is based on competition between the PGE2 to be determined and a fixed amount of added PGE2-acetylcholinesterase (AChE) conjugate (PGE2 tracer) for a limited amount of PGE2 monoclonal antibody. The amount of PGE2 tracer able to bind the PGE2 monoclonal antibody will be inversely proportional to the concentration of PGE2 in the well. Both the antibody-PGE2 complex and then antibody-PGE2 tracer complex bind to polyclonal goat anti-mouse IgG previously bound to the well. Then the plate is washed to remove any unbound reagent and Ellman's reagent is added to determine the amount of AChE bound to the well. […] The intensity of this color, determined by UV-Vis spectrophotometry, is proportional to the amount of PGE2 tracer bound […], which is inversely proportional to the amount of PGE2 present in the free well during incubation.

With `C[C@@H]1C[C@@H]([C@H](O)CC2CC(=O)NC(=O)C2)C(=O)[C@@H](C)C1` [Cycloheximide], the “PGE2” value came out at 31.85 pg/mL and the inhibition at 100 µg/mL was found to be 97.6%.

What is called inhibition is the percentage by which the read-out fell short of the control.
